Measurements published in patent US20070219155A1, “TREATING TRINUCLEOTIDE REPEAT CONDITIONS” (priority 2006, published 2007).

Legend:
human HD fibroblasts [1] = assay: Comet assay of H2O2-treated cells; details: cultured cells; FIG. 2F
human HD fibroblasts [2] = system: human HD fibroblasts
Experimental: Human HD fibroblasts (Coriell Cell Repositories) were maintained in MEM medium with 20% FBS. Cells were grown until they reached 70% confluence and then treated with the indicated concentrations of H2O2 for 30 min. The cells were washed, the medium was replaced, and the cells were allowed to recover for three days before repeating the treatment one or two more times. After the third treatment, the cells were collected and DNA was isolated. CAG repeat sizing was performed as described below.

[3] = system: lymphoblast cell lines obtained from HD patients; details: FIG. 2D
Experimental: DNA was purified from mouse tissues or cultured human fibroblasts (Kovtun et al., Hum. Mol. Genet., 13:3057-3068 (2004)) and used for PCR amplification of various microsatellites. CAG repeats at the hHD locus were amplified as described previously (Kovtun and McMurray, Nat. Genet., 27:407-411 (2001); Kovtun et al., Hum. Mol. Genet., 13:3057-3068 (2004)). […] One primer in each PCR amplification was labeled with FAM-6, and fluorescent products were analyzed using an ABI prism 3700 DNA analyzer instrument and the GeneMapper software v3 (Applied Biosystems).
It was then determined whether peroxide treatment could directly lead to CAG expansion at the hHD locus in human HD fibroblasts in response to oxidative damage.

What does the source list for `OO` [H2O2, hydrogen peroxide]?
single strand breaks (comet assay) (human HD fibroblasts [1]): dose-dependent increase in single strand breaks; cell viability (human HD fibroblasts [2]): did not affect cell viability; expansion of CAG repeats at the hHD locus (human HD fibroblasts [2]; low (sub-lethal) doses, 30 min treatment repeated up to three times, FIG. 2C): uniformly led to expansion of CAG at intermediate or disease-length alleles; expansion of GAA repeats (chromosome 5 locus) (human HD fibroblasts [2]; same peroxide-treated cells, FIG. 2E): expansion was not detected; expansion of CAG repeats at the hHD locus [3]: expansions were observed
